# Columns and labels:
# Acute toxicity = assay: Acute toxicity; design: species or system mice; settings: mouse, in vivo, iv, single dose, mortality within 7 days
# Description: The LD50 values were determined by the standard method via the mortality occurring within 7 days in NMRI (Naval Medical Research Institute) mice (6 animals per dose) after a single intraperitoneal (i.p.) or intravenous (i.v.) dose.
# leucine aminopeptidase = assay: Inhibition of leucine aminopeptidase; type: biochemical; settings: substrate L-leucine 4-nitroanilide
# Description: The activity of the enzyme aminopeptidase B was determined photometrically using the substrate L-lysine 2-naphthylamide at room temperature. […] In the same way, the inhibition of leucine aminopeptidase was investigated using L-leucine 4-nitroanilide as enzyme substrate. The IC50 values are compiled in Table 6.
# [1] = test system: DTH reaction to sheep erythrocytes; assay: Delayed-type hypersensitivity (DTH) reaction to sheep erythrocytes; type: in vivo, female NMRI mice
# Description: Groups each comprising 5 female NMRI mice with a body weight of 18 to 20 g were formed, and each animal was given 10^6 or 10^9 sheep red blood cells intravenously. Sheep erythrocytes are regarded in immunology as a standard antigen with which it is possible to check cellular and humoral immunoreactivity, especially the functioning of the T-cell-dependent component of the immune system, the so-called T-helper cells. The test substances were administered, in intraperitoneal doses of 5 to 100 mg/kg in physiological saline, at the same time as the antigen. After 5 days, each animal was given an injection of 2×10^8 sheep erythrocytes into the footpad. 24 hours later, the swelling of the foot was measured. The foot swelling is induced by a skin reaction of the delayed type (DTH reaction) and, as is known to those skilled in the art, is a measure of the cellular immune response (J. Immunol. 101 (1968), 830-845). The test results obtained with the product of Example 34, by way of example, are compiled in Table 7 and illustrate that the compounds of the formula I--administered prophylactically--are able to increase the cellular immune response after immunization with the antigen by stimulation of the T-cell system, with the stimulant action reaching its optimum in this experiment at a dose of 25 mg/kg.
# Staphylococcus aureus = Staphylococcus aureus infection of immunosuppressed mice; type: in vivo, female B6D2F1 mice; settings: up to day 45
# Excerpt: It is known that distinct immunosuppression can be induced in experimental animals by multiple administration of a cytostatic and is expressed by an increased susceptibility to infection with a drastic rise in mortality. […] Another group of infected animals which had not, however, been immunosuppressed by pretreatment with ADM was included as negative control. The immunosuppressed animals in the three active product groups received, on 4 consecutive days starting one day before the infection, the test substance, with intraperitoneal doses each of 0.1, 1 or 10 mg/kg being administered. Each experimental group comprised 20 animals.
# [2] = test system: antibodies against tetanus toxoid; assay: Antibody response of the mouse to tetanus toxoid (ELISA); type: in vivo, female NMRI mice; settings: 20-day value
# Description: Groups each containing 5 female NMRI mice with a body weight of 18 to 20 g were formed, and each of the animals received either intravenous administration of 10^8 heat-killed E coli bacteria or 300 Lf (limes of flocculation) of tetanus toxoid. Oral administration of the test substance in physiological saline (PBS) in doses of 5, 10, 20, 40 or 80 mg/kg, or of the pure vehicle (control groups), was carried out at the same time as administration of the antigen. After 10 and 20 days, blood was taken from the retroorbital venous plexus of the mice and, in the sera obtained therefrom, the IgG and IgM antibodies against E. coli organisms and tetanus toxoid were determined with the aid of the ELISA technique known to those skilled in the art, using homologous lipopolysaccharide from E. coli and tetanus toxoid, respectively, as antigen. The magnitude of the extinctions measured in the photometer is a measure of the amount of antibodies formed.
# Salmonella typhimurium = assay: Chronic Salmonella typhimurium infection in the mouse; type: in vivo, female NMRI mice; settings: 10 × 5 mg/kg i.p.; day 22
# Description: Female NMRI mice (20 animals/group) were infected by intravenous administration of 5×10^3 Salmonella typhimurium organisms. The animals subsequently developed a chronic infection which was characterized by persistent bacterial colonization of the organs, such as the liver and the spleen, with necrosis. The test substance was administered intraperitoneally in a dose of 5 mg/kg at intervals of two days from day 3 to day 21 after infection. The animals in a control group received only the vehicle. On day 22 after the infection, the mortality in both experimental groups was determined, and the organs of the animals which survived were examined for organisms and necrosis.
# peritoneal macrophages = assay: Activation of peritoneal macrophages: chemiluminescence (oxidative metabolism); settings: for Chemiluminescence: single dose
smiles,measurement,setting,value
"O=P(O)(O)C1CC(c2ccccc2)=NO1 (racemic) [Example 34, 3-Phenyl-2-isoxazolin-5-ylphosphonic acid]",LD50 at 168 h,Acute toxicity,200 to 300 mg/kg
same,Leucine aminopeptidase IC50,leucine aminopeptidase,24 μug/ml
same,% Foot swelling after immunization,"[1]; 10^6 erythrocytes, 5.0 mg/kg 1x i.p.",25.3 ± 5.8%
same,% Foot swelling after immunization,"[1]; 10^6 erythrocytes, 10.0 mg/kg 1x i.p.",28.9 ± 7.7%
same,% Foot swelling after immunization,"[1]; 10^6 erythrocytes, 12.5 mg/kg 1x i.p.",29.9 ± 3.5%
same,% Foot swelling after immunization,"[1]; 10^6 erythrocytes, 20.0 mg/kg 1x i.p.",32.5 ± 3.0%
same,% Foot swelling after immunization,"[1]; 10^6 erythrocytes, 25.0 mg/kg 1x i.p.",33.7 ± 6.6%
same,% Foot swelling after immunization,"[1]; 10^6 erythrocytes, 40.0 mg/kg 1x i.p.",29.7 ± 4.7%
same,% Foot swelling after immunization,"[1]; 10^6 erythrocytes, 50.0 mg/kg 1x i.p.",29.2 ± 6.9%
same,% Foot swelling after immunization,"[1]; 10^6 erythrocytes, 100.0 mg/kg 1x i.p.",27.3 ± 4.6%
same,% Foot swelling after immunization,"[1]; 10^9 erythrocytes, 5.0 mg/kg 1x i.p.",22.8 ± 3.5%
same,% Foot swelling after immunization,"[1]; 10^9 erythrocytes, 10.0 mg/kg 1x i.p.",24.1 ± 5.7%
same,% Foot swelling after immunization,"[1]; 10^9 erythrocytes, 12.5 mg/kg 1x i.p.",26.1 ± 8.9%
same,% Foot swelling after immunization,"[1]; 10^9 erythrocytes, 20.0 mg/kg 1x i.p.",30.5 ± 6.5%
same,% Foot swelling after immunization,"[1]; 10^9 erythrocytes, 25.0 mg/kg 1x i.p.",34.1 ± 7.4%
same,% Foot swelling after immunization,"[1]; 10^9 erythrocytes, 40.0 mg/kg 1x i.p.",32.8 ± 5.6%
same,% Foot swelling after immunization,"[1]; 10^9 erythrocytes, 50.0 mg/kg 1x i.p.",28.1 ± 4.1%
same,% Foot swelling after immunization,"[1]; 10^9 erythrocytes, 100.0 mg/kg 1x i.p.",26.6 ± 5.0%
same,dose at which the stimulant action (DTH reaction) reaches its optimum,[1]; i.p.,25 mg/kg
same,Relative stimulation of the DTH reaction,"[1]; single i.p. dose of 40 mg/kg, maximal stimulation by Example 34 = 100%",100%
same,Mortality,Staphylococcus aureus; 0.1 mg/kg 4 × i.p.,5/20
same,Mortality,Staphylococcus aureus; 1.0 mg/kg 4 × i.p.,8/20
same,Mortality,Staphylococcus aureus; 10.0 mg/kg 4 × i.p.,8/20
same,"Antibody response to tetanus toxoid, IgG",[2]; 5 mg/kg 1 × p.o.,865 ± 182 mE492nm
same,"Antibody response to tetanus toxoid, IgG",[2]; 10 mg/kg 1 × p.o.,1213 ± 255 mE492nm
same,"Antibody response to tetanus toxoid, IgG",[2]; 20 mg/kg 1 × p.o.,1852 ± 261 mE492nm
same,"Antibody response to tetanus toxoid, IgG",[2]; 40 mg/kg 1 × p.o.,1357 ± 348 mE492nm
same,"Antibody response to tetanus toxoid, IgG",[2]; 80 mg/kg 1 × p.o.,1154 ± 232 mE492nm
same,% of surviving animals with liver necroses,Salmonella typhimurium,58%
same,% of surviving animals with organism-positive livers,Salmonella typhimurium,67%
same,% of surviving animals with severe liver necroses,Salmonella typhimurium,42%
same,% of surviving animals with spleen necroses,Salmonella typhimurium,0%
same,Mortality,Salmonella typhimurium,8/20
same,Chemiluminescence,peritoneal macrophages; 5 mg/kg i.p.,842 ± 42 RLU/15 min × 10^3
same,Chemiluminescence,peritoneal macrophages; 5 mg/kg p.o.,728 ± 101 RLU/15 min × 10^3
same,Chemiluminescence,peritoneal macrophages; 10 mg/kg i.p.,2842 ± 223 RLU/15 min × 10^3
same,Chemiluminescence,peritoneal macrophages; 10 mg/kg p.o.,2140 ± 156 RLU/15 min × 10^3
same,Chemiluminescence,peritoneal macrophages; 20 mg/kg i.p.,4935 ± 516 RLU/15 min × 10^3
same,Chemiluminescence,peritoneal macrophages; 20 mg/kg p.o.,3286 ± 283 RLU/15 min × 10^3
same,Chemiluminescence,peritoneal macrophages; 40 mg/kg i.p.,6990 ± 290 RLU/15 min × 10^3
same,Chemiluminescence,peritoneal macrophages; 40 mg/kg p.o.,4405 ± 197 RLU/15 min × 10^3
same,"chemiluminescence, in words",peritoneal macrophages; i.p. and p.o.,pronounced dose-dependent increase in chemiluminescence

# From US5006515A, “Pharmaceuticals, phosphorus-containing 2-isoxazolines and isoxazoles contained therein” (Hoechst Aktiengesellschaft, priority 1987, dated 1991)
